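Dose response: 5 concentrations. Exposure: 48 h. Format: 96-well plates. Endpoint: linear interpolation; highest concentration if not reached. At the GI50, growth is halved.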 Active and inactive are the calls of the source. No stated cut-off is given here; in the data, active = GI50 up to about 1.1 µM and inactive = higher.
How the values were obtained:
Assay in all cases: DTP human tumour cell line panel, 48 h
[1] = tested on: NCI-H460
[2] = tested on: SF-268
[3] = tested on: SNB-75
[4] = tested on: M14
[5] = tested on: HCT-116
[6] = tested on: IGROV-1
[7] = tested on: A549
[8] = tested on: HCT-15
[9] = tested on: EKVX
[10] = tested on: UACC-62
[11] = tested on: OVCAR-8
[12] = tested on: DLD-1
[13] = tested on: A498
[14] = tested on: RXF 631
[15] = tested on: OVCAR-3
[16] = tested on: HL-60
[17] = tested on: KM-20L2
[18] = tested on: SW-620
[19] = tested on: UO-31
[20] = tested on: SN12C
[21] = tested on: LOX IMVI
[22] = tested on: ACHN
[23] = tested on: Malme-3M
[24] = tested on: UACC-257
[25] = tested on: OVCAR-4
[26] = tested on: KM12
[27] = tested on: K562
[28] = tested on: TK-10
[29] = tested on: HCC 2998
[30] = tested on: SNB-19
[31] = tested on: MOLT-4
[32] = tested on: HOP-18
[33] = tested on: SK-MEL-2
[34] = tested on: SK-MEL-28
[35] = tested on: M19-MEL
[36] = tested on: SK-OV-3
[37] = tested on: HOP-92
[38] = tested on: LXFL 529
[39] = tested on: SR
[40] = tested on: SF-295
[41] = tested on: NCI-H226
[42] = tested on: CAKI-1
[43] = tested on: CCRF-CEM
[44] = tested on: HT-29
[45] = tested on: NCI-H522
[46] = tested on: SF-539
[47] = tested on: HOP-62
[48] = tested on: 786-0
[49] = tested on: XF498
[50] = tested on: RXF 393
[51] = tested on: U-251
[52] = tested on: COLO 205
[53] = tested on: DMS-114
[54] = tested on: NCI-H23
[55] = tested on: DMS-273
[56] = tested on: RPMI-8226
[57] = tested on: SNB-78
[58] = tested on: SK-MEL-5

Q: Cc1ccc(/N=N/c2c(C)nn(-c3ccccc3)c2-c2ccccc2)c(Br)c1 was tested. Which GI50 [1] did it give?
A: 31.8 µM (inactive)

Q: What about the GI50 [2] of the same molecule?
A: > 100 µM (inactive)

Q: And the GI50 [3]?
A: > 100 µM (inactive)

Q: And the GI50 [4]?
A: > 100 µM (inactive)

Q: And the GI50 [5]?
A: 12.6 µM (inactive)

Q: And the GI50 [6]?
A: > 100 µM (inactive)

Q: And the GI50 [7]?
A: > 100 µM (inactive)

Q: And the GI50 [8]?
A: 28.2 µM

Q: And the GI50 [9]?
A: > 100 µM (inactive)

Q: And the GI50 [10]?
A: 40 µM (inactive)

Q: And the GI50 [11]?
A: > 100 µM (inactive)

Q: What about the GI50 [12] of the same molecule?
A: 57.4 µM (inactive)

Q: What about the GI50 [13] of the same molecule?
A: > 100 µM (inactive)

Q: And the GI50 [14]?
A: 34.4 µM (inactive)

Q: What about the GI50 [15] of the same molecule?
A: > 100 µM (inactive)

Q: What about the GI50 [16] of the same molecule?
A: 4.3 µM (inactive)

Q: What about the GI50 [17] of the same molecule?
A: > 100 µM (inactive)

Q: And the GI50 [18]?
A: 63.5 µM (inactive)

Q: And the GI50 [19]?
A: > 100 µM (inactive)

Q: What about the GI50 [20] of the same molecule?
A: > 100 µM (inactive)

Q: And the GI50 [21]?
A: 37.2 µM (inactive)

Q: And the GI50 [22]?
A: 53.8 µM (inactive)

Q: And the GI50 [23]?
A: > 100 µM (inactive)

Q: What about the GI50 [24] of the same molecule?
A: 79.8 µM (inactive)

Q: What about the GI50 [25] of the same molecule?
A: > 100 µM (inactive)

Q: What about the GI50 [26] of the same molecule?
A: > 100 µM (inactive)

Q: And the GI50 [27]?
A: 25.4 µM (inactive)

Q: What about the GI50 [28] of the same molecule?
A: > 100 µM (inactive)

Q: And the GI50 [29]?
A: 61.8 µM (inactive)

Q: And the GI50 [30]?
A: > 100 µM (inactive)

Q: What about the GI50 [31] of the same molecule?
A: 8.15 µM (inactive)

Q: What about the GI50 [32] of the same molecule?
A: > 100 µM (inactive)

Q: What about the GI50 [33] of the same molecule?
A: > 100 µM (inactive)

Q: What about the GI50 [34] of the same molecule?
A: > 100 µM (inactive)

Q: What about the GI50 [35] of the same molecule?
A: 55.1 µM (inactive)

Q: What about the GI50 [36] of the same molecule?
A: > 100 µM (inactive)

Q: What about the GI50 [37] of the same molecule?
A: 40 µM (inactive)

Q: And the GI50 [38]?
A: 87.9 µM (inactive)

Q: What about the GI50 [39] of the same molecule?
A: 6.21 µM (inactive)

Q: What about the GI50 [40] of the same molecule?
A: 86.5 µM (inactive)

Q: And the GI50 [41]?
A: > 100 µM (inactive)

Q: And the GI50 [42]?
A: > 100 µM (inactive)

Q: And the GI50 [43]?
A: 21 µM (inactive)

Q: And the GI50 [44]?
A: 27.6 µM (inactive)

Q: What about the GI50 [45] of the same molecule?
A: 97.1 µM (inactive)

Q: And the GI50 [46]?
A: 20.2 µM (inactive)

Q: And the GI50 [47]?
A: > 100 µM (inactive)

Q: And the GI50 [48]?
A: 32.6 µM (inactive)

Q: How did the GI50 [1] turn out when C=C(C)C1CC2=C(O1)C(=O)c1ccccc1C2=O (stereo not drawn) [DEHYDROISO-ALPHA-LAPACHONE] was run?
A: 17.7 µM (inactive)

Q: What about the GI50 [3] of the same molecule?
A: 17.6 µM (inactive)

Q: What about the GI50 [4] of the same molecule?
A: 18.5 µM (inactive)

Q: What about the GI50 [6] of the same molecule?
A: 20 µM (inactive)

Q: What about the GI50 [7] of the same molecule?
A: 21 µM (inactive)

Q: What about the GI50 [8] of the same molecule?
A: 17.9 µM

Q: What about the GI50 [9] of the same molecule?
A: 25.7 µM (inactive)

Q: What about the GI50 [10] of the same molecule?
A: 16.1 µM (inactive)

Q: What about the GI50 [11] of the same molecule?
A: 17.3 µM (inactive)

Q: What about the GI50 [12] of the same molecule?
A: 20.8 µM (inactive)

Q: And the GI50 [49]?
A: 17.9 µM (inactive)

Q: And the GI50 [14]?
A: 20.3 µM (inactive)

Q: And the GI50 [15]?
A: 18.9 µM (inactive)

Q: And the GI50 [16]?
A: 3.38 µM (inactive)

Q: And the GI50 [18]?
A: 23.6 µM (inactive)

Q: And the GI50 [50]?
A: 18.9 µM (inactive)

Q: What about the GI50 [20] of the same molecule?
A: 19.1 µM (inactive)

Q: And the GI50 [21]?
A: 9.18 µM (inactive)

Q: And the GI50 [51]?
A: 16.5 µM (inactive)

Q: What about the GI50 [24] of the same molecule?
A: 13.3 µM (inactive)

Q: What about the GI50 [52] of the same molecule?
A: 19.3 µM (inactive)

Q: What about the GI50 [25] of the same molecule?
A: 11.3 µM (inactive)

Q: And the GI50 [26]?
A: 18.3 µM (inactive)

Q: And the GI50 [27]?
A: 18.6 µM (inactive)

Q: And the GI50 [28]?
A: 23 µM (inactive)

Q: What about the GI50 [53] of the same molecule?
A: 16 µM (inactive)

Q: What about the GI50 [29] of the same molecule?
A: 19.1 µM (inactive)

Q: And the GI50 [30]?
A: 29.8 µM (inactive)

Q: What about the GI50 [31] of the same molecule?
A: 10.6 µM (inactive)

Q: And the GI50 [34]?
A: 19 µM (inactive)

Q: What about the GI50 [54] of the same molecule?
A: 18.9 µM (inactive)

Q: And the GI50 [36]?
A: > 100 µM (inactive)

Q: And the GI50 [37]?
A: 16.3 µM (inactive)

Q: What about the GI50 [55] of the same molecule?
A: 17.4 µM (inactive)

Q: And the GI50 [38]?
A: 17.2 µM (inactive)

Q: And the GI50 [56]?
A: 15.1 µM (inactive)

Q: And the GI50 [41]?
A: > 10 µM (inactive)

Q: What about the GI50 [42] of the same molecule?
A: 17.6 µM (inactive)

Q: What about the GI50 [57] of the same molecule?
A: 20.3 µM (inactive)

Q: What about the GI50 [43] of the same molecule?
A: 16.3 µM (inactive)

Q: And the GI50 [44]?
A: 20.9 µM (inactive)

Q: And the GI50 [45]?
A: 20.7 µM (inactive)

Q: What about the GI50 [46] of the same molecule?
A: 18.5 µM (inactive)

Q: And the GI50 [58]?
A: 14 µM (inactive)

Q: And the GI50 [47]?
A: 19.6 µM (inactive)
